The values below are quoted from earlier work in patent US20030077328A1, “Method and composition for inhibiting post-surgical adhesions” (priority 1995, published 2003).

The test system of the data set is post-traumatic adhesion formation. The following applies: hamster; 0.1 to 10 mg/kg subcutaneously at 12-hour intervals.

Turning to `CC(=O)CCCCn1c(=O)c2c(ncn2C)n(C)c1=O` [pentoxifylline], the “protection against post-traumatic adhesion formation” value was “provide protection against post-traumatic adhesion formation”.
